The subject of assay [1] is bovine tubulin. Kind of assay: Inhibition of the polymerization of bovine tubulin (in vitro). The format is biochemical. The text has this: In this test, tubulin purified by polymerization and depolymerization cycles is used, which is polymerized by addition of GTP and heating.
Table 1 states the %-inhibition values and Table 2 states the EC50 values of polymerization inhibition of tubulin with 30% associated proteins (MAPs).

Assay [2] concerns T1, porcine brain tubulin.
T1 construct: In addition to tubulin, the protein used comprises about 15% of associated proteins (MAPs)
As to the kind of experiment: Inhibition of the polymerization of porcine brain tubulin (turbidimetric). The format is biochemical. The following applies: porcine brain tubulin with about 15% MAPs, GTP, 37° C. Here is the method:
b) In an in vitro test, the compounds 1, 2, 4 and 7 were tested for inhibition of the polymerization of porcine brain tubulin. In this test, tubulin purified by polymerization and depolymerization cycles is used (Shelanski et al. Proc. Natl. Acad. Sci. U.S.A. 1973, 70, 765-768 modified according to Vater et al. Acta Histochem. Suppl. 1986, 33, 123-129), which is polymerized by addition of GTP and heating to 37° C. In addition to tubulin, the protein used comprises about 15% of associated proteins (MAPs). The measurement values were determined turbidimetrically according to Gaskin et al. J. Mol. Biol. 89 (1974) 737-755.
Table 3 states the EC50 value of the polymerization inhibition.

In assay [3] the target is T2, Eg513-437 (Homo sapiens, UniProt P52732).
T2 construct: read as Eg5 residues 13-437
T2 sequence (P52732 1-1056): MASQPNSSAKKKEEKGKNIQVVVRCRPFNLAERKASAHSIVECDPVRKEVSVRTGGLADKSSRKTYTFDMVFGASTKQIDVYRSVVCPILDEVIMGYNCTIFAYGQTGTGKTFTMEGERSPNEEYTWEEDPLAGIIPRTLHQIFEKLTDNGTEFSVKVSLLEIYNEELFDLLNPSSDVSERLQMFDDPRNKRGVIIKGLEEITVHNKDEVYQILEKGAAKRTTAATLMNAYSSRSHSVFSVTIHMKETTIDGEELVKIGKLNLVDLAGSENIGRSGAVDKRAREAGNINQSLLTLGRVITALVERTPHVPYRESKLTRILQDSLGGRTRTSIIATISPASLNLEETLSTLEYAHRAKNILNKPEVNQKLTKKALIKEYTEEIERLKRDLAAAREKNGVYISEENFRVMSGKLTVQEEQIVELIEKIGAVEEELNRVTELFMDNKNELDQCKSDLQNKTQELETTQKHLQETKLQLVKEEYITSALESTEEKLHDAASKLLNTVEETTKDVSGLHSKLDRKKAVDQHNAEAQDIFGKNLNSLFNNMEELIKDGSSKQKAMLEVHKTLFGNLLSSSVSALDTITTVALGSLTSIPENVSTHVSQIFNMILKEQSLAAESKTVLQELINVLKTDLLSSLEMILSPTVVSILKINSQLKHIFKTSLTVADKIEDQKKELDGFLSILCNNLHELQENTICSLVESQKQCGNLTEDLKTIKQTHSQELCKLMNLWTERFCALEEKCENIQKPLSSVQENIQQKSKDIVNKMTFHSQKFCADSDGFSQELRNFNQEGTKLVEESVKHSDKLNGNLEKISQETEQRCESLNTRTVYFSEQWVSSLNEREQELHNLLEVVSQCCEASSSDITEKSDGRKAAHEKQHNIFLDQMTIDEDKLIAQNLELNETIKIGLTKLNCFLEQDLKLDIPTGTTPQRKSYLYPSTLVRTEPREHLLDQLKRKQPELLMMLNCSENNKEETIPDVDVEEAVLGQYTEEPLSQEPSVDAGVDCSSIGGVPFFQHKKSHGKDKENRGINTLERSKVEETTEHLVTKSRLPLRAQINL
Kind of assay: Inhibition of kinesin Eg5 activity, recombinant Eg513-437. The format is biochemical. The following applies: recombinant Eg513-437 (Table 4). The text has this: (§1) In an in vitro test, compound 1 was examined for inhibition of Eg5 activity [Kodama, T. et al. J. Biochem. 99: 1465-1472 (1986)].
(§2) Here, the recombinant kinesins Eg513-437 (Table 3) and Eg51-406 (Table 4) were used.
(§3) Tables 4 and 5 state the EC50 values of Eg5 inhibition for the compound 1 according to the invention.

For assay [4], the target named is T3, Eg51-406 (Homo sapiens, UniProt P52732).
T3 construct: read as Eg5 residues 1-406
T3 sequence (P52732 1-1056): T2 sequence (P52732 1-1056)
Kind of assay: Inhibition of kinesin Eg5 activity, recombinant Eg51-406. To be noted: recombinant Eg51-406 (Table 5). The format is biochemical.
Text: as §1, §2, §3

Assay [5] concerns human cervical carcinoma cell line KB/HeLa. Kind of assay: Proliferation test (cellular dehydrogenase activity), KB/HeLa. The format is cell-based. The text has this:
(§4) The antiproliferative activity of the compounds 1, 2, 4, 6, 7, 9, 10, 11, 12 and 13 according to the invention was investigated in a proliferation test performed on established tumor cell lines (D. A. Scuderio et al. Cancer Res. 1988, 48: 4827-4833).
(§5) The test used determines the cellular dehydrogenase activity and makes it possible to determine cell viability and determine cell number indirectly.
(§6) The cell lines used are the human cervical carcinoma cell line KB/HeLa (ATCC CCL17), the ovarian adenocarcinoma cell line SKOV-3 (ATCC HTB77), the human glioblastoma cell line SF-268 (NCI-503138) and the lung carcinoma cell line NCI-H460 (NCI-503473). In addition, an RKOp27 cell system was used for investigating the cell cycle-specific effect of the substance (M. Schmidt et al. Oncogene 2000, 19(20): 2423-9).

The test system of assay [6] is lung carcinoma cell line NCI-H460. Kind of assay: Proliferation test (cellular dehydrogenase activity), NCI-H460. The format is cell-based. The following applies: Homo sapiens.
Text: as §4, §5, §6

The subject of assay [7] is human glioblastoma cell line SF-268. As to the kind of experiment: Proliferation test (cellular dehydrogenase activity), SF-268. Type of assay: cell-based.
Text: as §4, §5, §6

The test system of assay [8] is ovarian adenocarcinoma cell line SKOV-3. Kind of assay: Proliferation test (cellular dehydrogenase activity), SK-OV-3. The format is cell-based. To be noted: Homo sapiens.
Text: as §4, §5, §6

Molecules are shown by their SMILES. Converted amounts (≈) assume the structure as drawn. “And” between values parts separate entries of the source, which are not always exact repeats. Equal entries are not always repeated.

`O=C(C=C1c2ccccc2C(=O)c2ccccc21)c1ccc(O)c(O)c1` [Compound 1, 10-[2-(3,4-dihydroxy-phenyl)-2-oxo-ethylidene]-10H-anthracen-9-one]: in assay [1] (10 μg/ml, tubulin with 30% associated proteins (MAPs), repeat values), the “Inhibition at 10 μg/ml [%]” value was 98.2% and 83.0% and 86.9% and 79.7%. The “EC50 of polymerization inhibition of tubulin” value in assay [1] (bovine tubulin with 30% associated proteins (MAPs)) is 7.15 µg/mL and 8.02 µg/mL. The “EC50 of the polymerization inhibition” value in assay [2] was found to be 3.0 µg/mL. Further, the EC50 in assay [3] was 6.92 µM and 7.24 µM and 5.46 µM and 5.9 µM; in assay [4], 37.1 µM; in assay [5] it was 0.091 µg/mL (≈ 0.266 µM); in assay [6], 0.146 µg/mL (≈ 0.426 µM); in assay [7], 0.076 µg/mL (≈ 0.222 µM); in assay [8], 0.053 µg/mL (≈ 0.155 µM).
